Counter-ions that a name gives are not always drawn. Like-named read-outs stand apart in the source and are kept apart here.
Experiments:
Type in all cases: biochemical
[1] = biological target: T1, recombinant human MAO-A (monoamine oxidase-A) (Homo sapiens, UniProt P21397); assay: Activity on recombinant human MAO-A, Amplex Red method, 0.5 mM tyramine substrate; details: 0.5 mM tyramine, read-out: Inhibitory Activity (IC50, nM) MAO-A
T1 construct: purchased Sigma-Aldrich
T1 sequence (P21397 1-527): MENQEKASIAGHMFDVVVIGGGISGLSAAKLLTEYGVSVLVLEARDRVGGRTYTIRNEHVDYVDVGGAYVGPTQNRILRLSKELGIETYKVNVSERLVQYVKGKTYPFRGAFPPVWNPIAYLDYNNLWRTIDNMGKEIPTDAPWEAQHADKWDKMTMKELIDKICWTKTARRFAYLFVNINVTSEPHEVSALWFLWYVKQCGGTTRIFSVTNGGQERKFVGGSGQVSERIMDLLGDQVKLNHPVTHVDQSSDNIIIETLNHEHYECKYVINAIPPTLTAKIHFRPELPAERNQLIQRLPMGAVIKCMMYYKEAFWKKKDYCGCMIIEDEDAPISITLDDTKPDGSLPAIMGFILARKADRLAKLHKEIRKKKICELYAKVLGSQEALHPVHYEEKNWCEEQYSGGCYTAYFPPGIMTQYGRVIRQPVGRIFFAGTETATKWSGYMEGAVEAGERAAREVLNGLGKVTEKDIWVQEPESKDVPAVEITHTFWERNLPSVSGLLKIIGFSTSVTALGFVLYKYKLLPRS
Outline: (§1)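 Enzyme preincubated with compound 30 min at 37 °C in 50 mM sodium phosphate pH 7.4, final DMSO below 1%. Substrate was 0.5 mM tyramine for MAO-A and 1 mM benzylamine for MAO-B, with 200 uM Amplex Red and 1 U/mL HRP. H2O2-coupled resorufin fluorescence (ex 544/em 590) followed over 1–2 h; 8-point 4-parameter IC50.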

[2] = biological target: T2, recombinant human DAO (diamine oxidase) (Homo sapiens, UniProt P19801); assay: Activity on recombinant human DAO, Amplex Red method, 1 mM putrescine substrate
T2 construct: purchased R&D systems
T2 sequence (P19801 20-751): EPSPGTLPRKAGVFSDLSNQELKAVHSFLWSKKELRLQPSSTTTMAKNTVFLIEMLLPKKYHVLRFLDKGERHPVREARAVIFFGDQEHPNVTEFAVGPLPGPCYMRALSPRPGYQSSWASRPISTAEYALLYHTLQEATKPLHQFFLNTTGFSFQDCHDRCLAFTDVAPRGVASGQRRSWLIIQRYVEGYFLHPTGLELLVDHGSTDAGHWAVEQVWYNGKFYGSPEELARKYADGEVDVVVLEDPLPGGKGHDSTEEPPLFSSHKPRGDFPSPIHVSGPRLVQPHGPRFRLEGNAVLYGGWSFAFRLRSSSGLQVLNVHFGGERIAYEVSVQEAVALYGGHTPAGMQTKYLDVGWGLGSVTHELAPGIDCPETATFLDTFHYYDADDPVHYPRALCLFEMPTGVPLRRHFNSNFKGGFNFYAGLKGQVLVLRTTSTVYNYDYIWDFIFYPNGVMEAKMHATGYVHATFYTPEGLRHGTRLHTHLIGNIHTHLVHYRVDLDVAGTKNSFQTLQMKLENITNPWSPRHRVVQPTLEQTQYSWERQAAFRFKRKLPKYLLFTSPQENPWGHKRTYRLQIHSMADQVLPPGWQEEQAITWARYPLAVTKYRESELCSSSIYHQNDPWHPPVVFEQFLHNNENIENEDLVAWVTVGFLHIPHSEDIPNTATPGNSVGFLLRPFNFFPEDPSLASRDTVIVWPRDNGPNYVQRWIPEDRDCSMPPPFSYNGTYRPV
Outline: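 Inhibition of recombinant human DAO (diamine oxidase, R&D systems) was assessed with the Amplex Red Hydrogen Peroxide Assay Kit. Hydrogen peroxide produced from 1 mM putrescine was detected through an HRP-coupled reaction that converts Amplex Red into fluorescent resorufin, read at 544 nm excitation and 590 nm emission. IC50 values came from four-parameter logistic fits in GraphPad Prism.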

[3] = biological target: T3, recombinant human MAO-B (monoamine oxidase-B) (Homo sapiens, UniProt P27338); assay: Activity on recombinant human MAO-B, Amplex Red method, 1 mM benzylamine substrate; details: 1 mM benzylamine, read-out: Inhibitory Activity (IC50, nM) MAO-B
T3 construct: purchased Sigma-Aldrich
T3 sequence (P27338 1-520): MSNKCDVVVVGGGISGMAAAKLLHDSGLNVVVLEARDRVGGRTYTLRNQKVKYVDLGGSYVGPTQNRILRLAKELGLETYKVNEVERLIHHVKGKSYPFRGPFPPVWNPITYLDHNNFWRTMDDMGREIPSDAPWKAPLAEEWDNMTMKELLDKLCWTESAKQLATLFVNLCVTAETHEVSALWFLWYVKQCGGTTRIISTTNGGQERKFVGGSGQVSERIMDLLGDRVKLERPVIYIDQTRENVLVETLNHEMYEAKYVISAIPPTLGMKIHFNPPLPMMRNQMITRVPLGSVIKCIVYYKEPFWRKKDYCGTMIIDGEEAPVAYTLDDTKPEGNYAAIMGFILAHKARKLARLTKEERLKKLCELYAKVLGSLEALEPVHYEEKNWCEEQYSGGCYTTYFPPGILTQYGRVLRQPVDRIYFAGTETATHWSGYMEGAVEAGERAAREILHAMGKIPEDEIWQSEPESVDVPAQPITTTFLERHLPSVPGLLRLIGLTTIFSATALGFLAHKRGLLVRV
Outline: as §1

[4] = biological target: T4, recombinant human VAP-1 (Homo sapiens, UniProt Q16853); assay: Activity on recombinant human VAP-1, Amplex Red HRP-coupled hydrogen peroxide assay, benzylamine substrate; details: recombinant human VAP-1, benzylamine substrate, 30 min preincubation at 37° C.; read-out: Inhibitory Activity (IC50, nM) human VAP-1
T4 construct: purchased R&D systems
T4 sequence (Q16853 1-763): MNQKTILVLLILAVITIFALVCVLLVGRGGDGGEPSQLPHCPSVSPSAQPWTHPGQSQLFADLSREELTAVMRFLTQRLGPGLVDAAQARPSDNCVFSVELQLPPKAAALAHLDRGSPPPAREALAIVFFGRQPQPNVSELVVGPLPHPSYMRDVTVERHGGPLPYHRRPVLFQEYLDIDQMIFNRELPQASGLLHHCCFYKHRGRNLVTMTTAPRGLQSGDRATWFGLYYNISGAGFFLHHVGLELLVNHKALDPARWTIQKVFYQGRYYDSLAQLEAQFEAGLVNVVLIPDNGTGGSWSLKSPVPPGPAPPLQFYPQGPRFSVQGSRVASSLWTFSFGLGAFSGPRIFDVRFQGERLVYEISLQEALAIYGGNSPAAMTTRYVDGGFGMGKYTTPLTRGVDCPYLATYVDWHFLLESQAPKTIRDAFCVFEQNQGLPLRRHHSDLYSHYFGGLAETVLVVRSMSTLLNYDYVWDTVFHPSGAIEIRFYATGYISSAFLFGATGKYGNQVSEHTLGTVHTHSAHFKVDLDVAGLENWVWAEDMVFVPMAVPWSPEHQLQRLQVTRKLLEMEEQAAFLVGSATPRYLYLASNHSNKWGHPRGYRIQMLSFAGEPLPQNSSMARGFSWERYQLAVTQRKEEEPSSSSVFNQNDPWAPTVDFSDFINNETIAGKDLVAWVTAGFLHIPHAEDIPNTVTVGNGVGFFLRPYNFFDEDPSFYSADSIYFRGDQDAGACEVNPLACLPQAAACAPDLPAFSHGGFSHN
Outline: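 Enzyme in 50 mM sodium phosphate pH 7.4 preincubated with compound 30 min at 37 °C, then 1 mM benzylamine, 200 µM Amplex Red and 1 U/mL HRP added. H2O2-derived resorufin fluorescence (ex 544/em 590 nm) followed over 1–2 h; signal-rate decrease versus DMSO control, 8-point curve, four-parameter logistic IC50.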

[5] = recombinant human DAO, 1 mM putrescine, * = between 10 and 100 nM, ** = between 300 and 1000 nM, read-out: Inhibitory Activity (IC50, nM) DAO

Compound | IC50 [1] [nM] | IC50 [2, 5] [nM] | IC50 [3] [nM] | IC50 [4] [nM] | IC50 [2] [nM]
NC/C(=C\F)Cn1ncn(-c2cccc(Br)n2)c1=O [Example 37, 2-[(2E)-2-(aminomethyl)-3-fluoroprop-2-en-1-yl]-4-(6-bromopyridin-2-yl)-2,4-dihydro-3H-1,2,4-triazol-3-one] | > 100000 | 16 | > 10000 | 1.8 | –
NC/C(=C\F)Cn1ncn(-c2cnc(Br)cn2)c1=O [Example 38, 2-[(2E)-2-(aminomethyl)-3-fluoroprop-2-en-1-yl]-4-(5-bromopyrazin-2-yl)-2,4-dihydro-3H-1,2,4-triazol-3-one] | 19600 | < 100 | 112 | 4.4 | –
NC/C(=C/F)Cn1ncn(-c2nccs2)c1=O [Example 39, 2-[(2Z)-2-(aminomethyl)-3-fluoroprop-2-en-1-yl]-4-(1,3-thiazol-2-yl)-2,4-dihydro-3H-1,2,4-triazol-3-one hydrochloride] | 5700 | 30 | 2100 | 1.7 | –
NC/C(=C/F)Cn1ncn(-c2ncc(Br)s2)c1=O [Example 40, 2-[(2Z)-2-(aminomethyl)-3-fluoroprop-2-en-1-yl]-4-(5-bromo-1,3-thiazol-2-yl)-2,4-dihydro-3H-1,2,4-triazol-3-one hydrochloride] | 80 | 25 | 619 | 1.1 | –
NC/C(=C\F)Cn1ncn(-c2ncc(Br)s2)c1=O [Example 41, 2-[(2E)-2-(aminomethyl)-3-fluoroprop-2-en-1-yl]-4-(5-bromo-1,3-thiazol-2-yl)-2,4-dihydro-3H-1,2,4-triazol-3-one hydrochloride] | 780 | 17 | 174 | 0.6 | –
CC(=O)c1ccc(-c2ccc(-n3cnn(C/C(=C\F)CN)c3=O)cc2)s1 [Example 42, 4-[4-(5-acetylthiophen-2-yl)phenyl]-2-[(2Z)-2-(aminomethyl)-3-fluoroprop-2-en-1-yl]-2,4-dihydro-3H-1,2,4-triazol-3-one hydrochloride] | 18400 | 1 | < 0.01 | 0.47 | –
NC/C(=C\F)Cn1ncn(-c2ccc(-c3ccc(-c4nnc[nH]4)cc3)cc2F)c1=O [Example 43, 2-[(2E)-2-(aminomethyl)-3-fluoroprop-2-en-1-yl]-4-[3-fluoro-4′-(4H-1,2,4-triazol-3-yl)biphenyl-4-yl]-2,4-dihydro-3H-1,2,4-triazol-3-one] | > 100000 | < 100 | 196 | 0.62 | –
NC/C(=C\F)Cn1ncn(-c2ccc(-c3cccc(-c4nnc[nH]4)c3)cc2F)c1=O [Example 44, 2-[(2E)-2-(aminomethyl)-3-fluoroprop-2-en-1-yl]-4-[3-fluoro-3′-(4H-1,2,4-triazol-3-yl)biphenyl-4-yl]-2,4-dihydro-3H-1,2,4-triazol-3-one] | 68300 | < 100 | 65 | 1.3 | –
NC/C(=C\F)Cn1ncn(-c2ccc(-c3ccc4c(c3)OCO4)cc2F)c1=O [Example 45, 2-[(2E)-2-(aminomethyl)-3-fluoroprop-2-en-1-yl]-4-[4-(1,3-benzodioxol-5-yl)-2-fluorophenyl]-2,4-dihydro-3H-1,2,4-triazol-3-one hydrochloride] | 198 | 1.6 | < 10 | 0.21 | –
NC/C(=C\F)Cn1ncn(-c2ccc(-c3ccc4nonc4c3)cc2F)c1=O [Example 46, 2-[(2E)-2-(aminomethyl)-3-fluoroprop-2-en-1-yl]-4-[4-(2,1,3-benzooxadiazol-5-yl)-2-fluorophenyl]-2,4-dihydro-3H-1,2,4-triazol-3-one hydrochloride] | 120 | 0.76 | < 10 | 0.32 | –
NC/C(=C\F)Cn1ncn(-c2cccc(C3=CCNCC3)c2)c1=O [Example 48, 2-[(2E)-2-(aminomethyl)-3-fluoroprop-2-en-1-yl]-4-[3-(1,2,3,6-tetrahydropyridin-4-yl)phenyl]-2,4-dihydro-3H-1,2,4-triazol-3-one dihydrochloride] | > 100000 | – | > 10000 | 0.56 | 0.79
CC(=O)c1ccc(-c2cccc(-n3cnn(C/C(=C/F)CN)c3=O)c2)s1 [Example 49, 4-[3-(5-acetylthiophen-2-yl)phenyl]-2-[(2E)-2-(aminomethyl)-3-fluoroprop-2-en-1-yl]-2,4-dihydro-3H-1,2,4-triazol-3-one hydrochloride] | > 100000 | 2.1 | 800 | 0.2 | –
NC/C(=C\F)Cn1ncn(-c2cccc(-c3ccc(OC(F)(F)F)cc3)c2)c1=O [Example 50, 2-[(2E)-2-(aminomethyl)-3-fluoroprop-2-en-1-yl]-4-[4′-(trifluoromethoxy)biphenyl-3-yl]-2,4-dihydro-3H-1,2,4-triazol-3-one hydrochloride] | > 10000 | < 100 | 510 | 1 | –

Reference: patent US11492335B2, “Aryl or heteroaryl triazolone derivatives or salts thereof, or pharmaceutical compositions comprising the same” (YUHAN CORPORATION, priority 2018, dated 2022)
